Read-outs that look alike come from different tables or passages of the source.
Legend:
other P2YRs = settings: at high µM concentrations; ref [29],[43]; cited from earlier work
hP2Y14R = molecular target: T1, hP2Y14R (Homo sapiens, UniProt Q15391); set-up: method as in PMID 28527783, PMID 23235874; settings: previous members of the series; ref [29],[43]; cited from earlier work
T1 construct: expressed in transfected cells
T1 sequence (Q15391 1-338): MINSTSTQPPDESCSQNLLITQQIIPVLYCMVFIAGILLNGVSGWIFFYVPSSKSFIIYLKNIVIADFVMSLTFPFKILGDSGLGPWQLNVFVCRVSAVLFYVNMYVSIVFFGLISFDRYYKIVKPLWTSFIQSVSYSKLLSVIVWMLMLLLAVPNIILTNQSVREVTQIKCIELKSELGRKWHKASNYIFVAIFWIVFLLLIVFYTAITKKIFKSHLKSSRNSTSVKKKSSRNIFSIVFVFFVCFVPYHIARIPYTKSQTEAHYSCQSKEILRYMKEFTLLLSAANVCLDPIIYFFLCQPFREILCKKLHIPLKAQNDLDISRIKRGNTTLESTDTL

hP2Y6R = molecular target: T2, hP2Y6R (Homo sapiens, UniProt Q15077); test: UDP (100 nM)-induced Ca2+ mobilization in hP2Y6R stably transfected 1321N1 astrocytoma cells; type: cell-based; settings: UDP 100 nM; for IC50: 3–4 independent triplicate determinations
T2 construct: expressed in transfected cells
T2 sequence (Q15077 whole entry): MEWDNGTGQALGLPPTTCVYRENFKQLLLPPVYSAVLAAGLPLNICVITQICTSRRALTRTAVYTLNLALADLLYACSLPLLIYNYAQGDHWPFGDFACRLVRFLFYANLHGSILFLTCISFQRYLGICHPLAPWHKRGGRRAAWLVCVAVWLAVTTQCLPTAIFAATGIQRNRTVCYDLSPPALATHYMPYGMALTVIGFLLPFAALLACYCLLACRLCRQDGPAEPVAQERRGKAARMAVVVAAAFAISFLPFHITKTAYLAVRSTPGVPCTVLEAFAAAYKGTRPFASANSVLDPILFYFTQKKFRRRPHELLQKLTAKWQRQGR
Protocol: To screen for P2Y6R antagonist activity, PLC-mediated calcium mobilization assays were carried out using the recombinant human P2Y6R stably expressed in 1321N1 astrocytoma cells (hP2Y6R-1321N1) according to the previously published method. Briefly, the hP2Y6R-1321N1 cells were seeded on 96-well black plates and incubated overnight. The antagonists were pretreated along with the FLIPR dye (Calcium 6 assay kit, Molecular Devices, San Jose, CA, USA) containing 5 mM probenecid for 45 min, prior to agonist addition followed by an immediate intracellular Ca^2+ measurement. […] Here, probenecid was used as an organic anion transporter inhibitor to prevent the efflux of the dye into the extracellular environment. During incubation, the membrane permeable dye enters the cytoplasm and cleaves the acetoxymethyl protection to enable Ca^2+ binding. When the P2Y6R was activated by UDP, the increased calcium concentration was directly measured by intracellular changes in the fluorescence intensity with a Fluorescent Imaging Plate Reader (FLIPR^TETRA, Molecular Devices, San Jose, CA, USA).

α2A = molecular target: T3, α2A (Homo sapiens, UniProt P08913); test: PDSP binding assay, α2A; settings: PDSP, mean, n = 2; read-out: Ki, α2A
T3 construct: NIMH Psychoactive Drug Screening Program (PDSP)
T3 sequence (P08913 1-465): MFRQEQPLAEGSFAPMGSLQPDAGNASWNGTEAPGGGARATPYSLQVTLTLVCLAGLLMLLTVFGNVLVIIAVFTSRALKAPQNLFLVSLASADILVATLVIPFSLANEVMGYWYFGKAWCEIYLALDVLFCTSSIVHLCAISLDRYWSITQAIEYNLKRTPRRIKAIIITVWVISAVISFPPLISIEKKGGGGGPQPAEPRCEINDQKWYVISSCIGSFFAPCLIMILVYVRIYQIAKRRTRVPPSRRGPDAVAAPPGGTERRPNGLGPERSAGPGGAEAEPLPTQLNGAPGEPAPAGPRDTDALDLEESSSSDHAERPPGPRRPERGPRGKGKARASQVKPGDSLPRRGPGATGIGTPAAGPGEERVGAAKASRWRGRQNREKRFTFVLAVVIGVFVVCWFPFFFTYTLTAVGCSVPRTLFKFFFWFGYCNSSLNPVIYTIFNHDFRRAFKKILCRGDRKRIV
Source text: (§1) Table S2. Off-target screening (to replace table later). We thank Dr. Bryan L. Roth (Univ. North Carolina at Chapel Hill) and National Institute of Mental Health's Psychoactive Drug Screening Program (Contract # HHSN-271-2008-00025-C) for screening data. Reference: Besnard et al.
(§2) Procedures: https://pdsp.unc.edu/pdspweb/content/UNC-CH%20Protocol%20Book.pdf […]
(§3) nucleosides were found at the following sites (human unless noted): 5HT1A, 5HT1B, 5HT1D, […]
(§4) β3, BZP rat brain site, D1, D2, D3, D4, D5, GABAA, H1, H2, H3, H4, M1, M2, M5, δ-opioid receptor (DOR), κ-opioid receptor (KOR), μ-opioid receptor (MOR), σ1, σ2, DAT, NET, SERT. Ki values […]
(§5) Compound # PDSP # Receptor LogKi Ki (nM)

D5 = molecular target: T4, D5 (Homo sapiens, UniProt P21918); test: PDSP binding assay, D5; settings: PDSP, mean, n = 2; read-out: Ki, D5
T4 construct: NIMH Psychoactive Drug Screening Program (PDSP)
T4 sequence (P21918 whole entry): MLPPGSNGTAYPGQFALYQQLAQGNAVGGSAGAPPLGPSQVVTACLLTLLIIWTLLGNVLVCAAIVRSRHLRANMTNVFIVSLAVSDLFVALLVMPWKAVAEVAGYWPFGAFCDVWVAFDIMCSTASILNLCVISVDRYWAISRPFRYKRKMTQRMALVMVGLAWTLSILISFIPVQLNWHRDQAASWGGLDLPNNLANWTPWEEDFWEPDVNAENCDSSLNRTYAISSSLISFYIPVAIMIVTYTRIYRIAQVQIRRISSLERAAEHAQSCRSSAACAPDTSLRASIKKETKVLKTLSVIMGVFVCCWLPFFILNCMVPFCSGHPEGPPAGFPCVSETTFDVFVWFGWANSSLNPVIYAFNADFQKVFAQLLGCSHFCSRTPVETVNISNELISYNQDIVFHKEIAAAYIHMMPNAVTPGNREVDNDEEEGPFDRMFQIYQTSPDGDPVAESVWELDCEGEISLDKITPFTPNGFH
Source text: as §1, §2, §3, §4, §5

5-HT1D = molecular target: T5, 5-HT1D (Homo sapiens, UniProt P28221); test: PDSP binding assay, 5-HT1D; settings: PDSP, mean, n = 2; read-out: Ki, 5-HT1D
T5 construct: NIMH Psychoactive Drug Screening Program (PDSP)
T5 sequence (P28221 whole entry): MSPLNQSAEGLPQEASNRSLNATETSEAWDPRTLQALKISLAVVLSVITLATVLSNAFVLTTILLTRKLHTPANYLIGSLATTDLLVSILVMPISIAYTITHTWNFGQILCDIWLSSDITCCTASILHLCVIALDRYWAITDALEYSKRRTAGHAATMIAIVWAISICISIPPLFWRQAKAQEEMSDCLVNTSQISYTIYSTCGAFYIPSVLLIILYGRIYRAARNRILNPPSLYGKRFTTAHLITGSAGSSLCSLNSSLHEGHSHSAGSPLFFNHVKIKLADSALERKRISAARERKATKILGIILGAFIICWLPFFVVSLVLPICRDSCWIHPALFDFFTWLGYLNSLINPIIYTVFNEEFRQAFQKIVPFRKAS
Source text: as §1, §2, §3, §4, §5

α2B = molecular target: T6, α2B (Homo sapiens, UniProt P18089); test: PDSP binding assay, α2B; settings: mean, n = 2
T6 construct: NIMH Psychoactive Drug Screening Program (PDSP)
T6 sequence (P18089 1-450): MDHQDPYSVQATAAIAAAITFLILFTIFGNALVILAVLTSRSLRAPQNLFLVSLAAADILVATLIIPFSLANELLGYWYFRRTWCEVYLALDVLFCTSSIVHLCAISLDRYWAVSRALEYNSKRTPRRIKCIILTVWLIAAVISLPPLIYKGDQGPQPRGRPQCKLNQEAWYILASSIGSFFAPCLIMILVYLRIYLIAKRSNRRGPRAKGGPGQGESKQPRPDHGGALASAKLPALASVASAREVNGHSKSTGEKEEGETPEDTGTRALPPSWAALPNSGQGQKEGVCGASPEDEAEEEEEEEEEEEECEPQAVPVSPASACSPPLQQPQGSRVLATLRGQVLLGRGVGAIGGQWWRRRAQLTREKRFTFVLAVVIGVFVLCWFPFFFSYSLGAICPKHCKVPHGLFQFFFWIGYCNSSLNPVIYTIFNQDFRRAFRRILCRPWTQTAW
Source text: as §1, §2, §3, §4, §5

[1] = read-out: IC50, hP2Y6R (Mean ± SEM)

Compound	hP2Y14R binding (hP2Y14R)	IC50 (hP2Y6R; [1])	other results
O=[N+]([O-])C1=Cc2ccccc2OC1C(F)(F)F (stereo not shown) [Compound 2a, reference compound]	inactive	2910 ± 1210 nM	inhibition at most other P2YRs (other P2YRs): minor
CC(C)(C)n1nc(-c2nc3cc(Cl)ccc3[nH]2)cc1-c1ccco1 [Compound 4, reference compound]			inhibition at 100 µM (hP2Y6R; 1321-N1, at 100 µM): 18.9 ± 8.5%; IC50 (hP2Y6R; IC50, hP2Y6R (Mean ± SEM)): > 100000 nM
O=[N+]([O-])C1=Cc2ccc(Cl)cc2OC1C(F)(F)F (stereo not shown) [Compound 7]	inactive		
O=[N+]([O-])C1=Cc2cccc(Cl)c2OC1C(F)(F)F (stereo not shown) [Compound 8]	inactive		
CC[Si](C#Cc1cccc2c1OC(C(F)(F)F)C([N+](=O)[O-])=C2)(CC)CC (stereo not shown) [Compound 14]			inhibition at most other P2YRs (other P2YRs): minor
O=[N+]([O-])C1=Cc2cc(C#Cc3ccc(O)cc3)ccc2OC1C(F)(F)F (stereo not shown) [Compound 15]	inactive		
O=[N+]([O-])C1=Cc2cc(C#Cc3ccc(CO)cc3)ccc2OC1C(F)(F)F (stereo not shown) [Compound 16]	inactive		
O=[N+]([O-])C1=Cc2cc(C#CCCCCCCCCBr)ccc2OC1C(F)(F)F (stereo not shown) [Compound 19]		14000 ± 4700 nM	
CC(C)(C)OC(=O)NCCC#Cc1ccc2c(c1)C=C([N+](=O)[O-])C(C(F)(F)F)O2 (stereo not shown) [Compound 20]		587 ± 87 nM	Ki (α2A): 1600 nM; Ki (D5): 4400 nM
NCCC#Cc1ccc2c(c1)C=C([N+](=O)[O-])C(C(F)(F)F)O2 (stereo not shown) [Compound 21]		22600 ± 9300 nM	
CC(C)(C)OC(=O)NCCCC#Cc1ccc2c(c1)C=C([N+](=O)[O-])C(C(F)(F)F)O2 (stereo not shown) [Compound 22]		1870 ± 110 nM	
NCCCC#Cc1ccc2c(c1)C=C([N+](=O)[O-])C(C(F)(F)F)O2 (stereo not shown) [Compound 23]		9980 ± 1370 nM	
NCCCCC#Cc1ccc2c(c1)C=C([N+](=O)[O-])C(C(F)(F)F)O2 (stereo not shown) [Compound 25]		5390 ± 1490 nM	
CC(C)(C)OC(=O)NCCCCCC#Cc1ccc2c(c1)C=C([N+](=O)[O-])C(C(F)(F)F)O2 (stereo not shown) [Compound 26]		1190 ± 250 nM	Ki (α2A): 750 nM; Ki (5-HT1D): 4800 nM; Ki (α2B): 1700 nM
